Data set [1] in a line: physicochemical stability of the new solid forms. The source says: Although there is good understanding of the physicochemistry of the cocrystal components, their elucidation a priori is almost impossible, as the interactions which determine the structure are relatively weak and the number of degrees of freedom for the optimization problem is immeasurable. For these reasons, the new solid forms disclosed herein are not obvious to a person skilled in the art. Further, the cocrystals and solvates of the present invention have shown physicochemical stability, allowing their use in pharmaceutical compositions. The present invention worked, among others, with the following coformers: aliphatic carboxylic acids, aromatic carboxylic acids, aromatic hydroxycarboxylic acids, aliphatic hydroxycarboxylic acids, aromatic heterocyclic amides, amino acid derivatives, polyphenols, alcohols such as xylitol and aromatic aminocarboxylic acids such as 3-aminobenzoic acid. A new solid form (NSF) which was stable with 3-hydroxybenzoic acid was found in the different assays of the present invention. The obtained NSF corresponds to a compound wherein the neutral coformer has a hydroxyl group and a carboxylic acid, and further contains a phenyl group as part of its structure.

For data set [2] the following is noted: neutral form, D+ isomer (6R,12R); cited from earlier work.
The conditions of data set [3]: cited from earlier work.
The conditions of data set [4]: in therapeutic concentrations; cited from earlier work.

With `CN1CC(=O)N2[C@H](c3ccc4c(c3)OCO4)c3[nH]c4ccccc4c3C[C@@H]2C1=O.O=C(O)c1cccc(O)c1`, the “physicochemical stability of the solid form” value in data set [1] was “stable”.

For `CN1CC(=O)N2[C@H](c3ccc4c(c3)OCO4)c3[nH]c4ccccc4c3C[C@@H]2C1=O` [tadalafil], the solubility in water result in data set [2] is on record as “almost insoluble in water”. The “eliminated in faeces, predominantly as metabolites” value in data set [3] (faeces) is “approximately 61 % of the dose”. In addition, in data set [3] (urine), the “eliminated in urine, predominantly as metabolites” value is on record as “approximately 36 % of the dose”. For the same compound, the “plasmatic tadalafil bonded to proteins” value in data set [4] was 94%.

Values taken from patent US9278970B2, “Co-crystals of tadalafil and a hydroxy-substituted benzoic acid coformer as phosphodiesterase type 5 inhibitors” (Laboratorios Senosiain S.A. de C.V., priority 2012, dated 2016).
